Laboratory results from US11279707B2, “NEK inhibitors and methods of use” (DANA-FARBER CANCER INSTITUTE, INC., priority 2017, dated 2022).

How the values were obtained:
Format in all cases: biochemical
NEK7 = NEK7 (Homo sapiens, UniProt Q8TDX7); assay: kinase inhibition, NEK7
CLK = assay: kinase inhibition, CLK
NEK2 = biological target: T1, NEK2 (Homo sapiens, UniProt P51955); assay: kinase inhibition, NEK2
T1 sequence (P51955 1-445): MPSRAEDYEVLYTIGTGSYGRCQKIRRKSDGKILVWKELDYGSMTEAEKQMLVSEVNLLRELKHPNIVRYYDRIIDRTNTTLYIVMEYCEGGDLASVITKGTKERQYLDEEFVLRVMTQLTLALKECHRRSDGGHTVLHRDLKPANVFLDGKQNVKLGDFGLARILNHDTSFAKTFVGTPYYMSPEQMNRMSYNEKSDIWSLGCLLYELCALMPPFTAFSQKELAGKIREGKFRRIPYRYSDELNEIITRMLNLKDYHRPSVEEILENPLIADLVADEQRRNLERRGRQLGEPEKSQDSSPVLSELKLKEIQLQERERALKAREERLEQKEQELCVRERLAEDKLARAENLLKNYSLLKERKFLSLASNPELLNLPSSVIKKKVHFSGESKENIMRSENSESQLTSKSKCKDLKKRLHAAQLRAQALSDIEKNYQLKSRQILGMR

NEK6 = NEK6 (Homo sapiens, UniProt Q9HC98); assay: kinase inhibition, NEK6
Sequence of NEK6 (Q9HC98 whole entry, species assumed): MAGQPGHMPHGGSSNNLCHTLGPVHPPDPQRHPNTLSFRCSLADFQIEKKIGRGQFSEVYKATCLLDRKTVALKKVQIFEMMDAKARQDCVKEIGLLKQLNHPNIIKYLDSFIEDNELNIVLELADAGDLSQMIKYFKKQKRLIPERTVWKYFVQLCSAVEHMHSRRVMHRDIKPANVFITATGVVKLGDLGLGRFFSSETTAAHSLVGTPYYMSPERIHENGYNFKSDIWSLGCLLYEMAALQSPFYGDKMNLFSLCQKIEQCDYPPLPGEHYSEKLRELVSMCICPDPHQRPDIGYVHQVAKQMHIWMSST

DMPK = biological target: T2, DMPK (Homo sapiens, UniProt Q09013); assay: kinase inhibition, DMPK
T2 sequence (Q09013 1-629): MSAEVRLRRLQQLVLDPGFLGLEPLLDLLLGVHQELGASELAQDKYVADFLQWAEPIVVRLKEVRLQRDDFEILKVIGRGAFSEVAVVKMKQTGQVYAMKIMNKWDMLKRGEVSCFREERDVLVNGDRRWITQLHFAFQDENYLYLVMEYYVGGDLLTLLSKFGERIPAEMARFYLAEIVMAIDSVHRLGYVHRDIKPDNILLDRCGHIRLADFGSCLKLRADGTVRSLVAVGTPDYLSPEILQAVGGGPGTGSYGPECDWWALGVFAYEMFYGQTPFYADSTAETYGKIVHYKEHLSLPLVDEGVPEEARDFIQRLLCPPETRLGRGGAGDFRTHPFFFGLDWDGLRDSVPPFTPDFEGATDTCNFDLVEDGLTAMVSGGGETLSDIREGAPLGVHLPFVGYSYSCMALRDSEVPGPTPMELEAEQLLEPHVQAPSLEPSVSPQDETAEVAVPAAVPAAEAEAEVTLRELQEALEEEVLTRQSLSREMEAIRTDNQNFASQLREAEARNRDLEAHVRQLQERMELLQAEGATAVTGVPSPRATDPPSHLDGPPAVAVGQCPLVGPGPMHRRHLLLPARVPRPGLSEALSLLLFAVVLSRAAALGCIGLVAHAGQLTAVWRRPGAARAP

NEK9 = biological target: T3, NEK9 (Homo sapiens, UniProt Q8TD19); assay: kinase inhibition, NEK9
T3 sequence (Q8TD19 1-979): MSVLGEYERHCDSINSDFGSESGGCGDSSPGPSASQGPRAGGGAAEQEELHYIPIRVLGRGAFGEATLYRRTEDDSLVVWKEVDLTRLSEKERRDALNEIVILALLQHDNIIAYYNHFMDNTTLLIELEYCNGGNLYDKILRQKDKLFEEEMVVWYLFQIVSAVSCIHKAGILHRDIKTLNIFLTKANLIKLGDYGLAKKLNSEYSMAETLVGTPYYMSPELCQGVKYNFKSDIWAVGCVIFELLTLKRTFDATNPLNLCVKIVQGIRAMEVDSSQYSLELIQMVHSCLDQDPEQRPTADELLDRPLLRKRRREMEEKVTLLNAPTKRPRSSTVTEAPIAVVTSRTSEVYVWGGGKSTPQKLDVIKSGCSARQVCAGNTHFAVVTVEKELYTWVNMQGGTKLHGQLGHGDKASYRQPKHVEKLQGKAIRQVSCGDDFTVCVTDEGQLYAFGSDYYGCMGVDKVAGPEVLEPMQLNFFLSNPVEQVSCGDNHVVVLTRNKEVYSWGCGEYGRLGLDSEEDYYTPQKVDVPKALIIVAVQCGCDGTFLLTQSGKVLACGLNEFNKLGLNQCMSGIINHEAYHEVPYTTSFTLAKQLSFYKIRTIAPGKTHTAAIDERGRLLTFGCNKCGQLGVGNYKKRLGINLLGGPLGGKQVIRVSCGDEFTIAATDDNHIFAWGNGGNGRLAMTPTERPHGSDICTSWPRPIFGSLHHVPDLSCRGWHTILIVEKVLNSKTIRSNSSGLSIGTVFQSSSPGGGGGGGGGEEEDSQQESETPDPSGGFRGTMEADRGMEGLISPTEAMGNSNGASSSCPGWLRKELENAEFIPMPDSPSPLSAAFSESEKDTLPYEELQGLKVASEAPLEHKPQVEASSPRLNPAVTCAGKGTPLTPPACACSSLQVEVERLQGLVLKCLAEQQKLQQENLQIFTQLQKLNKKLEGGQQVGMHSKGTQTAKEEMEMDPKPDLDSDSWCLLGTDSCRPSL

SLK = SLK (Homo sapiens, UniProt Q9H2G2); assay: kinase inhibition, SLK
Sequence of SLK (Q9H2G2 whole entry): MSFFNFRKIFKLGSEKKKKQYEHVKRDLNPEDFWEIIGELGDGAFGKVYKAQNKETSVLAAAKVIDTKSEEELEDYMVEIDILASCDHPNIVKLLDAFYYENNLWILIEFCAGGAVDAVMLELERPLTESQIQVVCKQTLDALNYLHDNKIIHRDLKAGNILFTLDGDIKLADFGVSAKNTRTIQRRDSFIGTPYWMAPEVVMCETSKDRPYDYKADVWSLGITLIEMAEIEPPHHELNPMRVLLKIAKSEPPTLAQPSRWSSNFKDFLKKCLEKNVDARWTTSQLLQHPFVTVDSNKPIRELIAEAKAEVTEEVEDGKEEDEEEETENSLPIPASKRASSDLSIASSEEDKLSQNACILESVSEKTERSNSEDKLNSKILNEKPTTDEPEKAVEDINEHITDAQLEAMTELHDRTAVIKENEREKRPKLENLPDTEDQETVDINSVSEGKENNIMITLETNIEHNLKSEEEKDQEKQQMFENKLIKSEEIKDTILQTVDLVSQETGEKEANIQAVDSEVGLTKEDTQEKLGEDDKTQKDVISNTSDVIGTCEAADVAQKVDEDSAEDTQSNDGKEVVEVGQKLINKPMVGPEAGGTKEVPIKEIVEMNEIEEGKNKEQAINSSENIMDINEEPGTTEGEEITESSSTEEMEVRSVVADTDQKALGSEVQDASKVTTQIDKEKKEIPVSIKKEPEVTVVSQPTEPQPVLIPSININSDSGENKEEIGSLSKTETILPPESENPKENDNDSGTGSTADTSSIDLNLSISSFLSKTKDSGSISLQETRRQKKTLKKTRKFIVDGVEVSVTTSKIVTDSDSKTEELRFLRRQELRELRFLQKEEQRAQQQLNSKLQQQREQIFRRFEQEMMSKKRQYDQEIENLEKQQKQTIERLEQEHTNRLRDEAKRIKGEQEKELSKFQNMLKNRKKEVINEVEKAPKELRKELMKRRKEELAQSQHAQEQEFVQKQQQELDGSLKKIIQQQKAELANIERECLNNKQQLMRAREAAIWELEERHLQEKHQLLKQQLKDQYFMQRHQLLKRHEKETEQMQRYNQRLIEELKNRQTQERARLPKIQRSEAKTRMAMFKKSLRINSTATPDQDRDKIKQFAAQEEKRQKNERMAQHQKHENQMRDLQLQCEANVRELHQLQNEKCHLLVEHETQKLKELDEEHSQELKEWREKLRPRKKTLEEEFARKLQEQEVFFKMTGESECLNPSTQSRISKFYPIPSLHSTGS

Sequence of NEK7 (Q8TDX7 whole entry, species assumed): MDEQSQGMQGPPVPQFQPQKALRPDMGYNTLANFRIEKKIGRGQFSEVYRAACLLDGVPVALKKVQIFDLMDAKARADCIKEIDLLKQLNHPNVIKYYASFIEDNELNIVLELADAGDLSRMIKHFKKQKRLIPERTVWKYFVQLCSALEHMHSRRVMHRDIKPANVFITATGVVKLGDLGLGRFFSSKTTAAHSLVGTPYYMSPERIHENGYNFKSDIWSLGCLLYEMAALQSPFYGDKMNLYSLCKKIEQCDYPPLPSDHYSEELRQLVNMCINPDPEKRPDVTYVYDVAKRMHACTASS

SMILES | IC50 (NEK7) | IC50 (CLK) | IC50 (NEK2) | IC50 (NEK6) | IC50 (DMPK) | IC50 (NEK9) | IC50 (SLK)
COc1cc(N2CCC(N3CCN(C)CC3)CC2)ccc1Nc1ncc2c(n1)n1c(cc3ccccc31)c(=O)n2C [Compound I-9] | 250 to 1000 nM | 250 to 1000 nM | 50 to 250 nM | 250 to 1000 nM | 1000 to 5000 nM | ≤ 50 nM | 
Cn1c(=O)c2cc3ccccc3n2c2nc(Nc3cnn(CCN4CCOCC4)c3)ncc21 [Compound I-10] | 1000 to 5000 nM | 1000 to 5000 nM | 50 to 250 nM | ≥ 5000 nM | 250 to 1000 nM | 50 to 250 nM | 
Cn1c(=O)c2cc3ccccc3n2c2nc(Nc3cnn(CC(F)F)c3)ncc21 [Compound I-11] | 1000 to 5000 nM | ≥ 5000 nM | 250 to 1000 nM | ≥ 5000 nM | 1000 to 5000 nM | 50 to 250 nM | 
COc1cc(C(=O)N2CCN(C)CC2)ccc1Nc1ncc2c(n1)n1c(cc3ccccc31)c(=O)n2C [Compound I-12] | 1000 to 5000 nM | 250 to 1000 nM | 50 to 250 nM | 1000 to 5000 nM | 1000 to 5000 nM | 1000 to 5000 nM | 
CN1CCN(c2ccc(Nc3ncc4c(n3)n3c(cc5ccccc53)c(=O)n4C)c(C(F)(F)F)c2)CC1 [Compound I-13] | 250 to 1000 nM | ≥ 5000 nM | 50 to 250 nM | 1000 to 5000 nM | ≥ 5000 nM | 1000 to 5000 nM | 
COc1cc(C(=O)N2CCOCC2)ccc1Nc1ncc2c(n1)n1c(cc3ccccc31)c(=O)n2C [Compound I-14] | 50 to 250 nM | ≥ 5000 nM | 50 to 250 nM | 1000 to 5000 nM | 250 to 1000 nM | ≤ 50 nM | 
CCN1CCN(c2ccc(Nc3ncc4c(n3)n3c(cc5ccccc53)c(=O)n4C)c(OC)c2)CC1 [Compound I-15] | 250 to 1000 nM | 250 to 1000 nM | ≤ 50 nM | 250 to 1000 nM | 250 to 1000 nM | 50 to 250 nM | 
CCN1CCN(c2ccc(Nc3ncc4c(n3)n3c(cc5ccccc53)c(=O)n4C)cc2)CC1 [Compound I-16] | 250 to 1000 nM | 50 to 250 nM | ≤ 50 nM | 250 to 1000 nM | 50 to 250 nM | ≤ 50 nM | 
Cn1c(=O)c2cc3ccccc3n2c2nc(Nc3ccc(N4CCC(N5CCOCC5)CC4)cc3)ncc21 [Compound I-17] |  | 50 to 250 nM | ≤ 50 nM | 250 to 1000 nM | 50 to 250 nM | ≤ 50 nM | 50 to 250 nM
CCOc1cc(N2CCC(O)CC2)ccc1Nc1ncc2c(n1)n1c(cc3ccccc31)c(=O)n2C [Compound I-18] | 250 to 1000 nM | ≥ 5000 nM | 50 to 250 nM | 250 to 1000 nM | ≥ 5000 nM | 250 to 1000 nM | 
CC(C)Oc1cc(N2CCC(O)CC2)ccc1Nc1ncc2c(n1)n1c(cc3ccccc31)c(=O)n2C [Compound I-19] | 250 to 1000 nM | ≥ 5000 nM | ≥ 5000 nM | 1000 to 5000 nM | ≥ 5000 nM | ≥ 5000 nM | 
COc1cc(N2CCC(C(N)=O)CC2)ccc1Nc1ncc2c(n1)n1c(cc3ccccc31)c(=O)n2C [Compound I-20] | 50 to 250 nM | 1000 to 5000 nM | 50 to 250 nM | 250 to 1000 nM | 1000 to 5000 nM | 50 to 250 nM | 
Cn1c(=O)c2cc3ccccc3n2c2nc(Nc3cc(N4CCOCC4)cc(N4CCOCC4)c3)ncc21 [Compound I-21] | 250 to 1000 nM | 250 to 1000 nM | ≤ 50 nM | 250 to 1000 nM | 250 to 1000 nM | 50 to 250 nM | 
Cn1c(=O)c2cc3ccccc3n2c2nc(Nc3ccc(N4CCOCC4)nc3)ncc21 [Compound I-22] | 250 to 1000 nM | 250 to 1000 nM | 50 to 250 nM | 1000 to 5000 nM | 250 to 1000 nM | 50 to 250 nM | 
CN1CCN(C2CCN(c3ccc(Nc4ncc5c(n4)n4c(cc6ccccc64)c(=O)n5C)cn3)CC2)CC1 [Compound I-23] | 250 to 1000 nM | 50 to 250 nM | ≤ 50 nM | 250 to 1000 nM | 50 to 250 nM | ≤ 50 nM | 
CCN1CCN(c2ccc(Nc3ncc4c(n3)n3c(cc5ccccc53)c(=O)n4C)cc2C(F)(F)F)CC1 [Compound I-25] |  |  | ≤ 50 nM |  |  | 50 to 250 nM | 
CCn1c(=O)c2cc3ccccc3n2c2nc(Nc3ccc(N4CCN(C)CC4)cc3)ncc21 [Compound I-26] |  |  | 50 to 250 nM |  |  | 50 to 250 nM | 
CCn1c(=O)c2cc3ccccc3n2c2nc(Nc3ccc(N4CCN(C)CC4)c(C(F)(F)F)c3)ncc21 [Compound I-27] |  |  | 250 to 1000 nM |  |  | 250 to 1000 nM | 
CCN1CCN(c2ccc(Nc3ncc4c(n3)N3c5ccccc5CC3C(=O)N4C)cc2)CC1 (stereo not drawn) [Compound I-28] |  |  | 50 to 250 nM |  |  | ≤ 50 nM | 
CN1C(=O)C2Cc3ccccc3N2c2nc(Nc3ccc(N4CCC(N5CCOCC5)CC4)cc3)ncc21 (stereo not drawn) [Compound I-29] |  |  | ≤ 50 nM |  |  | ≤ 50 nM | 
COc1cc(N2CCN(C)CC2)ccc1Nc1ncc2c(n1)N1c3ccccc3CC1C(=O)N2C (stereo not drawn) [Compound I-30] |  |  | 250 to 1000 nM |  |  | 50 to 250 nM | 
CN1C(=O)C2Cc3ccccc3N2c2nc(Nc3cc(N4CCOCC4)cc(N4CCOCC4)c3)ncc21 (stereo not drawn) [Compound I-31] |  |  | 50 to 250 nM |  |  | 50 to 250 nM | 
CN1C(=O)C2Cc3ccccc3N2c2nc(Nc3ccc(N4CCOCC4)cc3)ncc21 (stereo not drawn) [Compound I-32] |  |  | 50 to 250 nM |  |  | 50 to 250 nM | 
COc1cc(N2CCOCC2)ccc1Nc1ncc2c(n1)N1c3ccccc3CC1C(=O)N2C (stereo not drawn) [Compound I-33] |  |  | 1000 to 5000 nM |  |  | 250 to 1000 nM | 
